Key:
IL-6 = conditions: mouse, in vivo
Description: (§1) Form II has earlier been tested for its effects on circulating levels of TNF-alpha and IL-6 2 and 4 hours after administration of a sublethal dose of LPS in CD1 mice. Therefore, Form II was administered i.p. at the dose of 0.5, 1.5 and 15.0 mg/kg 15 minutes before LPS challenge.

inflammatory cytokines = conditions: mouse, in vivo
Description: as §1

TNF-alpha = conditions: mouse, in vivo
Description: as §1

[1] = depending on compound, dosage and formulation; cited from earlier work
neuronal damage = conditions: low concentrations in vitro; cited from earlier work
PPMS or SPMS = conditions: five years (60 months) after start; 200 mg then 300 mg twice a day; baseline EDSS 4.0
Description: EDSS determination is then performed every 6 months. […] Thus, the dosage is increased to 300 mg twice a day. […] No dosage adjustment is necessary. […] The next treatment round might vary in dosages used and duration of the treatments depending on disease progression.

TNFalpha = conditions: add on to standard therapy, acute phase RRMS patients; cited from earlier work
[2] = system: adjuvant induced arthritis; conditions: rat, in vivo
Description: Rats were evaluated for arthritis daily by an observer unaware of the treatment according to a macroscopic scoring system. An arthritis index was calculated for each rat by summing the scores for the individual paws.

In the case of `Nc1cccc2c(=O)[nH][nH]c(=O)c12.[Na]` [Form II, 5-amino-2,3-dihydro-1,4-phthalazinedione sodium salt], the “Downregulation of IL-6 compared to vehicle” value (IL-6) is reported as “significant”, the “Downregulation of IL-6 significant compared to vehicle” value (IL-6) is reported as “not” and the “dose with best efficacy in down-regulation of IL-6” value (IL-6) is reported as 0.5 mg/kg. The “blood levels of inflammatory cytokines provoked by sublethal dose of LPS” value (inflammatory cytokines) was “significantly reduced”, the “Downregulation of TNF-alpha compared to vehicle” value (TNF-alpha) was “significant” and the “Downregulation of TNF-alpha significant compared to vehicle” value (TNF-alpha) was “not”. The “dose with best efficacy in down-regulation of TNF-alpha” value (TNF-alpha) was 0.5 mg/kg.

In the case of `Nc1cccc2c(=O)[nH][nH]c(=O)c12` [5-amino-2,3-dihydro-1,4-phthalazinedione], the half-life [1] is given as “several hours”.

In the case of `Nc1cccc2c(=O)[nH][nH]c(=O)c12.[Na]` [5-amino-2,3-dihydro-1,4-phthalazinedione sodium salt], the “neuronal damage in neurodegenerative diseases” value (neuronal damage) is listed as “prevent neuronal damage”, the disability progression (PPMS or SPMS) is listed as 0.5 EDSS points and the “downregulation of TNFalpha” value (TNFalpha) is listed as “promising”.

With `Nc1cccc2c(=O)[nH][nH]c(=O)c12.[Na]` [Form I, 5-amino-2,3-dihydro-1,4-phthalazinedione sodium salt] the effective dosage confirmed (inflammatory cytokines; ip) was 0.5 mg/kg, the “effect when applied orally” value (inflammatory cytokines; po) was “there was an effect” and the arthritic score [2] was “significantly reduced”. The most effective dose [2] was “medium” and the “cumulative score of the disease” value ([2]; ip, 1 mg/kg) was “reduce significantly”.

Source: US11007192B2, “Use of 5-amino-2,3-dihydro-1,4-phthalazinedione in the treatment of chronic progressive multiple sclerosis” (METRIOPHARM AG, priority 2016, dated 2021)
